In patent US20050033050A1, “Phthalazinones and the use thereof in order to combat undesirable microorganisms” (priority 2001, published 2005):
Read-outs that look alike come from different tables or passages of the source.

Columns and labels:
[1] = logP by HPLC (EEC directive 79/831 Annex V.A8, gradient method); type: physicochemical; conditions: for logP*: compounds of formula (IV), Table 2; for log P*: Table 1
[2] = system: Erysiphe graminis fsp. tritici; test: Erysiphe test (wheat)/protective; type: in vivo; conditions: protective, application rate 500 g/ha, evaluation 7 days after inoculation, 100% = no infection
Procedure: (§1) To produce a suitable preparation of active compound, I part by weight of active compound is mixed with the stated amounts of solvent and emulsifier, and the concentrate is diluted with water to the desired concentration.
To test for protective activity, young plants are sprayed with the preparation of active compound at the stated application rate.
After the spray coating has dried on, the plants are dusted with spores of Erysiphe graminis fsp. tritici.
(§2) The plants are placed in a greenhouse at a temperature of about 20° C. and a relative atmospheric humidity of about 80% to promote the development of mildew pustules.
(§3) Evaluation is carried out 7 days after the inoculation. 0% means an efficacy which corresponds to that of the control, whereas an efficacy of 100% means that no infection is observed.

[3] = system: Erysiphe graminis f.sp. hordei; test: Erysiphe test (cucumber)/protective; type: in vivo; conditions: protective, application rate 500 g/ha, evaluation 7 days after inoculation; 100% = no infection
Procedure: as §1, with “1” for “I”, “concentration. To test for protective activity, young plants are sprayed with the preparation of active” for “concentration.”
compound at the stated application rate.
After the spray coating has dried on, the plants are dusted with spores of Erysiphe graminis f.sp. hordei.
as §2, §3

[4] = gradient method, acetonitrile/0.1% aqueous phosphoric acid
[5] = gradient method, acetonitrile/0.1% aqueous phosphoric acid, compounds of formula (I), Table 1, read-out: log P*
[6] = preparation example, read-out: HPLC: logP
[7] = gradient method, acetonitrile/0.1% aqueous phosphoric acid, compounds of formula (I)

| Compound | logP* [1, 4] | log P* [1, 7] | further results |
| --- | --- | --- | --- |
| CCCOc1nn(CCC)c(=O)c2cc(Br)ccc12 [Example 1, 7-bromo-4-propoxy-2-propyl-1(2H)-phthalazinone] | – | – | chromatographic logP [1, 5]: 4.76; chromatographic logP [1, 6]: 4.76 |
| CCCOc1nn(CCC(C)C)c(=O)c2ccc(Br)cc12 [Example 2, 6-bromo-2-isopentyl-4-propoxy-1 (2H)-phthalazinone] | – | – | chromatographic logP [1, 5]: 5.91; chromatographic logP [1, 6]: 5.91 |
| CCCOc1nn(CCC)c(=O)c2cc(Cl)c(Cl)cc12 [Example 10] | – | 5.51 | efficacy [2]: 100% |
| CCCCOc1nn(CCCC)c(=O)c2cc(Cl)c(Cl)cc12 [Example 11] | – | 6.71 | efficacy [3]: 100%; efficacy [2]: 100% |
| CCC(C)Oc1nn(C(C)CC)c(=O)c2cc(Cl)c(Cl)cc12 (stereo not shown) [Example 12] | – | 3.62 | – |
| CC(C)COc1nn(CC(C)C)c(=O)c2cc(Cl)c(Cl)cc12 [Example 13] | – | 6.46 | – |
| CCCOc1cc2c(OCCC)nn(CCC)c(=O)c2cc1F [Example 15] | – | 4.82 | – |
| CCCOc1cc2c(=O)n(CCC)nc(OCCC)c2cc1F [Example 16] | – | 5.26 | – |
| CCC(C)Oc1n[nH]c(=O)c2cc(Br)ccc12 (stereo not shown) [Example (IV-1), 7-bromo-4-sec-butoxy-1 (2H)-phthalazinone] | – | – | chromatographic logP [1, 6]: 3.01 |

Now from value to compound, other results behind:

| logP* [1, 4] | log P* [1, 7] | Compound | further results |
| --- | --- | --- | --- |
| 2.66 | – | CCCOc1n[nH]c(=O)c2cc(Br)ccc12 [(IV-2)] | – |
| 2.71 | – | CCCOc1n[nH]c(=O)c2ccc(Br)cc12 [(IV-3)] | – |
| 3.12 | – | CCC(C)Oc1n[nH]c(=O)c2ccc(Br)cc12 (stereo not shown) [(IV-4)] | – |
| 3.62 | – | CCC(C)Oc1n[nH]c(=O)c2cc(Cl)c(Cl)cc12 (stereo not shown) [(IV-5)] | – |
| 3.64 | – | CC(C)COc1n[nH]c(=O)c2cc(Cl)c(Cl)cc12 [(IV-6)] | – |
| – | 4.8 | CCCOc1nn(CCC)c(=O)c2ccc(Br)cc12 [Example 4] | efficacy [2]: 100% |
| – | 5.52 | CCC(C)Oc1nn(C(C)CC)c(=O)c2cc(Br)ccc12 (stereo not shown) [Example 9] | – |
